PubChem BioAssay AID623864 (Southern Research Specialized Biocontainment Screening …, 2012)
The source made the active and inactive calls. No rule for the calls is given here.

Tested on: not listed separately
Assay: VeroE6 cell cytotoxicity, dose response, cytotoxicity control for flavivirus guanylyltransferase probe project (AID 623864)
Settings: VeroE6 cell viability, cytotoxicity CC50; at 50 µM (top of the series)

In the case of `Cn1c(=O)c2[nH]c(-c3ccc(Cl)cc3)c(O)c2n(C)c1=O`, the viability is reported as 72.3% (inactive).

Tested on: VeroE6 cell viability, cytotoxicity CC50
Assay: as above
Settings: not given

`O=C(O)CSc1cc(NS(=O)(=O)c2cccc3cccnc23)c2ccccc2c1O` and `Cc1cc(F)ccc1S(=O)(=O)Nc1cc(SCC(=O)O)c(O)c2ccccc12` are within 1.5-fold of each other in CC50: 19.2 µM for the first, 21.6 µM for the second.

Going from `Cc1ccc(S(=O)(=O)Nc2cc(Sc3nc(C)cc(C)n3)c(O)c3ccccc23)cc1` to `Cc1ccc(S(=O)(=O)Nc2cc(SCC(=O)O)c(O)c3ccccc23)cc1`, the CC50 rises from 12.8 µM to 27.6 µM (2.2-fold).

Going from `COc1ccc(OC)c(S(=O)(=O)Nc2cc(SCC(=O)O)c(O)c3ccccc23)c1` to `Cc1cc(C)c(S(=O)(=O)Nc2cc(SCC(=O)O)c(O)c3ccccc23)c(C)c1`, the CC50 falls from 29.7 µM to 12.6 µM (2.4-fold).

`O=C(O)CSc1cc(NS(=O)(=O)c2ccc(Br)cc2)c2ccccc2c1O` and `O=C(O)CSc1cc(NS(=O)(=O)c2ccc(F)cc2)c2ccccc2c1O` are within 1.5-fold of each other in CC50: 21.6 µM for the first, 20 µM for the second.

`O=S(=O)(Nc1cc(Cl)c(O)c2ccccc12)c1ccc(F)cc1` and `O=S(=O)(Nc1cc(Sc2ncn[nH]2)c(O)c2ccccc12)c1ccc(F)cc1` are within 1.5-fold of each other in CC50: 29.4 µM for the first, 31.7 µM for the second.

Going from `O=[N+]([O-])c1cccc(S(=O)(=O)Nc2cc(Sc3nc4ccccc4s3)c(O)c3ccccc23)c1` to `O=[N+]([O-])c1cccc(S(=O)(=O)Nc2cc(SCc3ccccc3)c(O)c3ccccc23)c1`, the CC50 rises from 7.37 µM to 14.4 µM (2-fold).

`O=S(=O)(Nc1cc(SCc2ccccc2)c(O)c2ccccc12)c1ccc(Cl)cc1` and `O=C(O)CSc1cc(NS(=O)(=O)c2ccc(Cl)cc2)c2ccccc2c1O` are within 1.5-fold of each other in CC50: 32.3 µM for the first, 30.8 µM for the second.

`O=C(O)CSc1cc(NS(=O)(=O)c2cccc([N+](=O)[O-])c2)c2ccccc2c1O` showed a CC50 of 30.9 µM.
